Here are results for 9 compounds from patent US20080319055A1, “Cooling Compounds” (GIVAUDAN SA, priority 2005, published 2008).

SMILES strings stand for the structures.

The test system of test [1] is trained panel of 4 to 8 people. In words: Cooling intensity by trained panel, isointensity method versus menthol. The format is in vivo. As to conditions: aqueous solutions tasted, compared to aqueous solution of reference menthol at 2 ppm. The procedure: The cooling intensity of the compounds was determined by a trained panel of 4 to 8 people according to the isointensity method as described below.
Aqueous solutions of various concentrations of a chemical compound were prepared and tasted. The cooling intensity of each solution was compared to that of an aqueous solution of the reference compound at 2 ppm, namely menthol.

The test system of a further test is mouth. As to the kind of experiment: Application in mouthwash, cooling sensation in the mouth. Type of test: in vivo. As to conditions: 50 mL of 1% solution in alcohol per 1 liter mouthwash (also contains peppermint oil); 30 mL swished, gargled and spit out. The procedure: All the ingredients were mixed. 30 mL of obtained solution was put in the mouth, swished around, gargled and spit out.

In turn, `CC(C)C(NC(=O)c1ccc2c(c1)OCO2)C(C)C` [Ex. 5H, N-(1-isopropyl-isobutyl)benzo[1,3]dioxole-5-carboxamide] came in with a rel. cooling intensity in test [1] of 0.9.
Same read-out and setting: the same measure for `COC(=O)c1ccc(C(=O)NC(C)(C(C)C)C(C)C)cc1` [Ex. 5C, N-(1-methyl-1-isopropyl-isobutyl) O-methylterephthalamate]: 1.7.
Consider `CCC(CC)(CC)NC(=O)c1ccc2c(c1)OCO2` [Ex. 5L, N-(1,1-diethylpropyl)benzo[1,3]dioxole-5-carboxamide], for which the rel. cooling intensity in test [1] stood at 0.3.
The same measure, in the same setting: the same measure for `CC(C)C(C)(NC(=O)c1ccc(-c2ccccc2)cc1)C(C)C` [Ex. 5F, N-(1-methyl-1-isopropyl-isobutyl) biphenyl-4-carboxamide]: 1.5.
`COc1ccc(C(=O)NC(C)(C(C)C)C(C)C)cc1` [Ex. 4, N-1-methyl-1-isopropylisobutyl anisamide]: in test [1], the rel. cooling intensity was 1.1. In addition, the “cooling sensation in mouthwash” value with mouth is on record as “pleasant cooling sensation was felt in every area of the mouth”.
`CC(C)C(C)(NC(=O)c1ccc2c(c1)OCO2)C(C)C` [Ex. 5K, N-(1-methyl-1-isopropyl-isobutyl)benzo[1,3]dioxole-5-carboxamide]: the rel. cooling intensity in test [1] was determined as 0.9.
On to `CC1(C)C2CCC1(C)C(NC(=O)c1ccccc1)C2` (stereo not shown) [Ex. 5M, N-bornyl benzamide], for which the rel. cooling intensity in test [1] is 0.6.
The same measure, in the same setting: the same measure for `CCC(CC)(CC)NC(=O)c1ccc(-c2ccccc2)cc1` [Ex. 5E, N-(1,1-diethylpropyl)biphenyl-4-carboxamide]: 1.2; for `COC(=O)c1ccc(C(=O)NC2CC(C)CCC2C(C)C)cc1` (stereo not shown) [Ex. 5D, N-(3-p-menthyl) O-methylterephthalamate]: 2.5.
